In this assay the test system is TCRV (strain TRVL 11573). Further details: species or system AG129 mice. Particulars: mouse, in vivo.

As for `NC(=O)c1ncn([C@@H]2O[C@H](CO)[C@@H](O)[C@H]2O)n1` [Ribavirin, ribavirin], the “Infectious TCRV Liver” value is 4.3, 3.5 log10 CCID50/mL; the “Infectious TCRV Serum” value is 2.5, ND log10 CCID50/mL; the “Infectious TCRV Spleen” value is recorded as 6.1, 5.5 log10 CCID50/mL; the survival is 82%. Moreover, the “viral loads on day 9 p.i. compared to placebo” value was “only modestly reduced viral loads”.
